Reference: the CheMixHub viscosity set
Values joined by “and” are separate entries in the source; they are usually repeats but may differ in a detail not shown here. Equal entries are not always repeated.

Key:
[1] = xn = mol fraction of the nth substance listed

CCC(C)(C)C
Settings	viscosity [mPa·s]
298 K, 101.33 kPa	0.3406

CCCC(=O)OCC
Settings	viscosity [mPa·s]
303.15 K, 101 kPa	0.5776

CCCC(=O)OCC(COC(=O)CCC)OC(=O)CCC
101.33 kPa
Settings	viscosity [mPa·s]
298 K	8.68
303 K	7.38
308 K	6.32
313 K	5.49

CCCCC(CC)COP(=O)(OCC(CC)CCCC)OCC(CC)CCCC (stereo unspecified)
Settings	viscosity [mPa·s]
308.15 K, 101 kPa	8.206

CCCCCCCCCC(=O)OCC
Settings	viscosity [mPa·s]
298.15 K, 100 kPa	2.112

CCCCN
viscosity
Settings	293.15 K	298.15 K	303.15 K	308.15 K	313.15 K	318.15 K	323.15 K
100 kPa	–	0.468 mPa·s	0.458 mPa·s	–	0.398 mPa·s	–	0.353 mPa·s
101 kPa	0.55 mPa·s and 0.523 mPa·s	0.48 mPa·s and 0.474 mPa·s	–	–	0.401 mPa·s and 0.3922 mPa·s and 0.3891 mPa·s	0.3695 mPa·s	0.3491 mPa·s
101.33 kPa	–	–	–	0.412 mPa·s	0.3891 mPa·s and 0.3887 mPa·s and 0.397 mPa·s	0.3676 mPa·s	0.3486 mPa·s and 0.355 mPa·s

CC[N+](=O)[O-]
viscosity
Settings	293.15 K	298.15 K	303.15 K	308.15 K	313.15 K	318.15 K
101 kPa	–	–	0.5737 mPa·s	0.5507 mPa·s	–	0.5009 mPa·s
101.33 kPa	0.68 mPa·s and 0.679 mPa·s and 0.679 mPa·s	0.638 mPa·s	0.605 mPa·s and 0.605 mPa·s	–	0.544 mPa·s and 0.544 mPa·s	–

CCn1ccnc1
viscosity [mPa·s]
Settings	298.15 K	308.15 K	318.15 K
100 kPa	1.93	1.59	1.34
101 kPa	1.933	1.594	1.343

Cc1ccncc1
Settings	viscosity [mPa·s]
298.15 K, 101.33 kPa	0.86

O=C(O)C(Cl)(Cl)Cl
Settings	viscosity
323.15 K, 101 kPa	4.824 mPa·s (2×) and 5.323 mPa·s and 4.797 mPa·s

OC1CCCCCC1
100 kPa
Settings	viscosity [mPa·s]
293.15 K	68.77
298.15 K	53.6
303.15 K	43.34
308.15 K	35.61
313.15 K	30.84
318.15 K	26.6

[Cl-].[Cl-].[Cl-].[Sb+3]
Settings	viscosity [mPa·s]
323.15 K, 101 kPa	3.926

CCCC(=O)OCC + c1ccccc1
[1]
Settings	viscosity [mPa·s]
303.15 K, 101.33 kPa, x2 = 0.0662	0.591
303.15 K, 101.33 kPa, x2 = 0.2048	0.581
303.15 K, 101.33 kPa, x2 = 0.3293	0.571
303.15 K, 101.33 kPa, x2 = 0.4394	0.563
303.15 K, 101.33 kPa, x2 = 0.5452	0.559
303.15 K, 101.33 kPa, x2 = 0.5996	0.555
303.15 K, 101.33 kPa, x2 = 0.6452	0.554
303.15 K, 101.33 kPa, x2 = 0.7372	0.551
303.15 K, 101.33 kPa, x2 = 0.8161	0.551
303.15 K, 101.33 kPa, x2 = 0.8938	0.554
303.15 K, 101.33 kPa, x2 = 0.9658	0.555
308.15 K, 101.3 kPa, x1 = 0.0473	0.534
308.15 K, 101.3 kPa, x1 = 0.099	0.531
308.15 K, 101.3 kPa, x1 = 0.1937	0.528
308.15 K, 101.3 kPa, x1 = 0.2987	0.526
308.15 K, 101.3 kPa, x1 = 0.4059	0.527
308.15 K, 101.3 kPa, x1 = 0.4998	0.529
308.15 K, 101.3 kPa, x1 = 0.5753	0.533
308.15 K, 101.3 kPa, x1 = 0.7021	0.541
308.15 K, 101.3 kPa, x1 = 0.7978	0.55
308.15 K, 101.3 kPa, x1 = 0.903	0.562
308.15 K, 101.3 kPa, x1 = 0.9514	0.569
313.15 K, 101.33 kPa, x2 = 0.2126	0.539
313.15 K, 101.33 kPa, x2 = 0.4055	0.521
313.15 K, 101.33 kPa, x2 = 0.507	0.513
313.15 K, 101.33 kPa, x2 = 0.6031	0.506
313.15 K, 101.33 kPa, x2 = 0.8066	0.496
318.15 K, 101.3 kPa, x1 = 0.0473	0.47
318.15 K, 101.3 kPa, x1 = 0.099	0.471
318.15 K, 101.3 kPa, x1 = 0.1937	0.472
318.15 K, 101.3 kPa, x1 = 0.2987	0.476
318.15 K, 101.3 kPa, x1 = 0.4059	0.481
318.15 K, 101.3 kPa, x1 = 0.4998	0.486
318.15 K, 101.3 kPa, x1 = 0.5753	0.491
318.15 K, 101.3 kPa, x1 = 0.7021	0.502
318.15 K, 101.3 kPa, x1 = 0.7978	0.512
318.15 K, 101.3 kPa, x1 = 0.903	0.525
318.15 K, 101.3 kPa, x1 = 0.9514	0.531
